In brackets after ≈: the same amount, converted by molar mass. Where two headings read alike, the source gives them in different places.
Columns and labels:
Assay type in all cases: cell-based
[1] = system: E. coli CVCCO157; assay: MIC, microtiter broth dilution; details: 37 °C, 16–18 h, three experiments
Description: (§1) All experiments were repeated three times.

[2] = system: A. veronii ACCC61732; assay: Post-antibiotic effect (PAE); details: for PAE: 2 h exposure, 1000-fold dilution, 37 °C, triplicate; for PAEs, range over 1×–4× MIC: 1× to 4× MIC
Experimental: The samples were taken from flasks for counting each hour until bacterial cultures became turbid. The untreated bacteria severed as controls. The PAE was calculated using the following equation: PAE = T − C, where T is the time (h) required for the CFU in the test culture to increase by 10-fold from the count immediately after the drug removal and C is the corresponding time (h) for the control. The experiment was performed in triplicate.

[3] = system: A. veronii ACCC61732; assay: Resistance development, 30 serial passages; details: A. veronii ACCC61732, 30 passages (30 days)
Experimental: The development of bacterial resistance of peptides was performed by the MIC assays. […] GEN, CIP, and PMB were used as controls. […] The MIC values were measured as described above. The serial passaging was repeated for 30 days.

[4] = system: A. veronii ACCC61732; assay: microbe, parasite or virus in culture
Description: The checkerboard microtiter assay was used to determine the combinations of peptides with different antibiotics (including quinolone, rifamycin, peptide antibiotics, aminoglycoside, tetracycline, and chloramphenicol). […] The fractional inhibitory concentration (FIC) was used to calculate the combination effects using the following formula: FIC index (FICI) = MIC(peptide in combination)/MIC(peptide alone) + MIC(antibiotic in combination)/MIC(antibiotic alone). FICI ≤ 0.5 means synergistic, 0.5 < FICI ≤ 1 means additive action, 1 < FICI ≤ 4 means indifference, and FICI > 4 means antagonism.

[5] = system: A. veronii ACCC61732 in biofilm; details: 2 h
Experimental: The mid-log phase A. veronii ACCC61732 cells (1 × 10^8 CFU/mL) were inoculated into in the 96-well plates and cultured for 24 h at 37 °C. The plates were washed twice with PBS. […] PBS was used as the negative control. The plates were treated with ultrasound for 5 min and the viable bacteria were counted on the TSA plates.

[6] = system: E. coli CVCC25922; assay: microbe, parasite or virus in culture; details: E. coli CVCC25922; broth dilution, 37 °C, 16–18 h, three experiments
Description: as §1

[7] = system: S. pullorum CVCC533; assay: microbe, parasite or virus in culture
Description: as §1

[8] = system: Escherichia coli CVCC195; assay: microbe, parasite or virus in culture; details: Escherichia coli CVCC195; broth dilution, 37 °C, 16–18 h, three experiments
Description: as §1

[9] = system: Candida albicans CMCC98001; assay: microbe, parasite or virus in culture; details: CMCC98001; read-out: MIC
Description: as §1

[10] = system: S. pullorum CVCC1789; assay: microbe, parasite or virus in culture
Description: as §1

[11] = system: Staphylococcus aureus ATCC43300; assay: microbe, parasite or virus in culture
Description: as §1

[12] = system: S. enteritidis CVCC3377; assay: microbe, parasite or virus in culture
Description: as §1

[13] = system: A. veronii X-1-06909; assay: microbe, parasite or virus in culture
Description: as §1

[14] = system: E. coli CVCC1515; assay: microbe, parasite or virus in culture
Description: as §1

[15] = system: S. pullorum CVCC1809; assay: microbe, parasite or virus in culture; details: S. pullorum CVCC1809; broth dilution, 37 °C, 16–18 h, three experiments
Description: as §1

[16] = system: A. veronii ACCC61732; assay: Inner membrane permeability, PI staining, flow cytometry
Experimental: To analyze effects of peptides on the inner membrane, A. veronii ACCC61732 cells were cultured to mid-log phase at 37 °C in MHB medium, washed thrice with PBS, and resuspended in the PBS buffer to 1 × 10^8 CFU/mL. […] After fixation with PI, the samples were detected by a fluorescent inverted microscope and FACS Calibur Flow Cytometer (BD, San Jose, CA, USA), respectively. Cell Quest Pro software (BD, San Jose, CA, USA) was used for the data analysis.

[17] = system: A. veronii ACCC61732; assay: Time-killing curves; details: 2× MIC; 1 × 10^5 CFU/mL, colony counting, 0–24 h
Experimental: Time-killing curves were performed as previously described. […] The sample of 100 μL was taken from each flask at 0, 0.5, 1, 2, 4, 6, 8, 10, 20, and 24 h, respectively, and serially diluted for colony counting. PBS and CIP were used as the negative and positive control, respectively.

[18] = S. pullorum CVCC533, broth dilution, 37 °C, 16–18 h, three experiments
[19] = S. pullorum CVCC1789, broth dilution, 37 °C, 16–18 h, three experiments
[20] = Staphylococcus aureus ATCC43300, broth dilution, 37 °C, 16–18 h, three experiments
[21] = S. enteritidis CVCC3377, broth dilution, 37 °C, 16–18 h, three experiments
[22] = A. veronii X-1-06909, broth dilution, 37 °C, 16–18 h, three experiments
[23] = E. coli CVCC1515, broth dilution, 37 °C, 16–18 h, three experiments

Structure (SMILES)	MIC [1]	PAE ([2]; 1× MIC)	PAEs, range over 1×–4× MIC [2]	PAE ([2]; 2× MIC)	PAE ([2]; 4× MIC)	increase of MIC after 30 serial passages [3]	interaction with polymyxin B (PMB) ([4]; checkerboard, by FICI)	bacteria in biofilm killed [5]; 8	bacteria in biofilm killed [5]; 16	MIC [6]	MIC [7, 18]	MIC [8]	MIC [9]	MIC ([10]; CVCC1789, read-out: MIC)	MIC [10, 19]	MIC ([11]; ATCC43300, read-out: MIC)	MIC [11, 20]	MIC ([12]; CVCC3377, read-out: MIC)	MIC [12, 21]	MIC [13, 22]	further results
CC(C)[C@@H]1NC(=O)CNC(=O)[C@H](CC(N)=O)NC(=O)[C@H](CCCNC(=N)N)NC(=O)[C@H](Cc2ccc(O)cc2)NC(=O)[C@H](C(C)C)NC(=O)[C@@H](NC(=O)[C@@H](NC(=O)[C@H](CC(N)=O)NC(=O)[C@H](Cc2c[nH]c3ccccc23)NC(=O)[C@H](C)NC(=O)[C@H](Cc2ccccc2)NC(=O)[C@H](CCCN)N=C(N(C)C)N(C)C)C(C)C)CSSC[C@@H](C(=O)N[C@@H](Cc2c[nH]cn2)C(=O)N[C@@H](CCCNC(=N)N)C(=O)N[C@@H](CCCNC(=N)N)C(=O)N[C@@H](C)C(=O)N[C@@H](CC(N)=O)C(N)=O)NC(=O)[C@H](C(C)C)NC(=O)[C@H](CCCNC(=N)N)NC1=O (stereo in doubt) [Guo-N6NH2]	4 µg/mL (≈ 1.52 µM)	0.62 ± 0.01 h	0.62 to 2.07 h	1.32 ± 0.08 h	2.07 ± 0.08 h	three-fold	synergic effect	46.26%	54.31%	4 µg/mL (≈ 1.52 µM)	8 µg/mL	4 µg/mL (≈ 1.52 µM)	>48.6 µM	3.04 µM	8 µg/mL	6.08 µM	16 µg/mL	0.76 µM	2 µg/mL	16 µg/mL	MICa, MIC of the peptide used alone [4]: 8 µg/mL; MIC ([7]; CVCC533, read-out: MIC): 3.04 µM; MIC ([13]; read-out: MIC): 6.08 µM; MIC ([14]; CVCC1515, read-out: MIC): 0.76 µM; MIC [14, 23]: 2 µg/mL; MIC [15]: 4 µg/mL (≈ 1.52 µM); Permeability (PI-positive cells) ([16]; 1× MIC, 0.5 h): 0.63%; Permeability (PI-positive cells) ([16]; 1× MIC, 2 h): 4.96%; Permeability (PI-positive cells) ([16]; 2× MIC, 0.5 h): 0.55%; Permeability (PI-positive cells) ([16]; 2× MIC, 2 h): 1.91%; Permeability (PI-positive cells) ([16]; 4× MIC, 0.5 h): 0%; Permeability (PI-positive cells) ([16]; 4× MIC, 2 h): 2.16%; time to completely kill A. veronii ACCC61732 [17]: 6 h
CC(C)[C@@H]1NC(=O)CNC(=O)[C@H](CC(N)=O)NC(=O)[C@H](CCCNC(=N)N)NC(=O)[C@H](Cc2ccc(O)cc2)NC(=O)[C@H](C(C)C)NC(=O)[C@@H](NC(=O)[C@@H](NC(=O)[C@H](CC(N)=O)NC(=O)[C@H](Cc2c[nH]c3ccccc23)NC(=O)[C@H](C)NC(=O)[C@H](Cc2ccccc2)NC(=O)CN)C(C)C)CSSC[C@@H](C(=O)N[C@@H](Cc2cnc[nH]2)C(=O)N[C@@H](CCCNC(=N)N)C(=O)N[C@@H](CCCNC(=N)N)C(=O)N[C@@H](C)C(=O)N[C@@H](CC(N)=O)C(N)=O)NC(=O)[C@H](C(C)C)NC(=O)[C@H](CCCNC(=N)N)NC1=O [N6NH2]	4 µg/mL (≈ 1.62 µM)	0.69 ± 0.01 h	0.69 to 1.17 h	0.7 ± 0.01 h	1.17 ± 0.22 h	one-fold	synergic effect	65.49%	75.36%	4 µg/mL (≈ 1.62 µM)	4 µg/mL	4 µg/mL (≈ 1.62 µM)	>52 µM	3.23 µM	8 µg/mL	6.46 µM	16 µg/mL	0.81 µM	2 µg/mL	32 µg/mL	interaction with rifampicin, streptomycin sulfate, doxycycline hyclate, and kanamycin sulfate ([4]; checkerboard, by FICI): additive effects; MIC ([13]; read-out: MIC): 12.9 µM; MIC ([14]; CVCC1515, read-out: MIC): 0.81 µM; MIC [14, 23]: 2 µg/mL; MIC [15]: 4 µg/mL (≈ 1.62 µM); Permeability (PI-positive cells) ([16]; 1× MIC, 0.5 h): 0%; Permeability (PI-positive cells) ([16]; 1× MIC, 2 h): 1.39%; Permeability (PI-positive cells) ([16]; 2× MIC, 0.5 h): 0%; Permeability (PI-positive cells) ([16]; 2× MIC, 2 h): 1.49%; time to completely kill A. veronii ACCC61732 [17]: 8 h

From publication PMC7767178 (International Journal of Molecular Sciences, 2020)
